We go through 1 molecule from ChEMBL document CHEMBL5725750, “Bifunctional compounds and use for reducing uric acid levels” (2018).

For orientation: IC50 means the concentration needed to halve the response being measured. A high value points to lower potency.

For the assay, the target named is Xanthine dehydrogenase/oxidase (Homo sapiens, UniProt P47989). The experiment in a line: xanthine oxidase activity: Xanthine oxidase inhibition was determined using a standard fluorescence-based assay for xanthine oxidase activity (McHale A, Grimes H, Coughlan M P: Int J Biochem. 10:317-9, 1979) with minor variations. […] Experiments on test compounds were performed in triplicate in multi-well plates using 10 concentrations of each compound that ranged over a 3-fold dilution.
Sequence of Xanthine dehydrogenase/oxidase (P47989 whole entry): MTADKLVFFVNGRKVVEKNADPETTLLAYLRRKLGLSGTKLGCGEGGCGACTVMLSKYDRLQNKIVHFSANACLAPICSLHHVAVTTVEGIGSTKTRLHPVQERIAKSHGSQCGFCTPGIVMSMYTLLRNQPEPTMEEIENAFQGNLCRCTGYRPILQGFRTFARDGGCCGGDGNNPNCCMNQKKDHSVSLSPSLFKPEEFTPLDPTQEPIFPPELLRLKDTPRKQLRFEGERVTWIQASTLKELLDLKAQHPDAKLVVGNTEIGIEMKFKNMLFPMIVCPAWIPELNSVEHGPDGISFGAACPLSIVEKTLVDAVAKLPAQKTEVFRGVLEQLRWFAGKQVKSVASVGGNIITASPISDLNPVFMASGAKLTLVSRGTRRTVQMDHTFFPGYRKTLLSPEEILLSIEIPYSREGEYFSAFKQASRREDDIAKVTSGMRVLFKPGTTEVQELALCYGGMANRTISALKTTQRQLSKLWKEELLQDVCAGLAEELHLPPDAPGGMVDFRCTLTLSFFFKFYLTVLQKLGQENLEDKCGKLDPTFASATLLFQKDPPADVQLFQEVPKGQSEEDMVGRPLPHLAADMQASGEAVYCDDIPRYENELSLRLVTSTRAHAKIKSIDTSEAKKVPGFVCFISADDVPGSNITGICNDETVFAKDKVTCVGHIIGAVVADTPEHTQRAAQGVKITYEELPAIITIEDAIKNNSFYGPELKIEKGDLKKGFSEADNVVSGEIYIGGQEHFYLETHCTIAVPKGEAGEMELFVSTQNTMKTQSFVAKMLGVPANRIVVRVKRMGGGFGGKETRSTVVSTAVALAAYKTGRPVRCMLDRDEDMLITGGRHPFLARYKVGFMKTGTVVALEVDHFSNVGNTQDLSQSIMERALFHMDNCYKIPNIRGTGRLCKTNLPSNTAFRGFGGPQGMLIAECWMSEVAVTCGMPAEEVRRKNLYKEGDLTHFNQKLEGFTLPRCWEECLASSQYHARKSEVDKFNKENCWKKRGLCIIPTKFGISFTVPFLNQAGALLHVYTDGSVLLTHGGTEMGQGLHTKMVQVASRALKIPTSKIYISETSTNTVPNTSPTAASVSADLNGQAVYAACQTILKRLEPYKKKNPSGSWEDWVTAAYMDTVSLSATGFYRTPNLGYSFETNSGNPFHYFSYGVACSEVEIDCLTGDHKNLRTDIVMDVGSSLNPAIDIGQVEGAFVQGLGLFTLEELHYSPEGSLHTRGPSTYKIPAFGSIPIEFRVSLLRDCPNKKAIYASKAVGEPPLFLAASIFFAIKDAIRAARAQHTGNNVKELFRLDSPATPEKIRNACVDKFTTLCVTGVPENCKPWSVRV

For the molecule `O=C(O)CSc1nnc(Br)n1-c1ccc(C2CC2)c2ccccc12`, the IC50 was above 300 µM.
